Assay results taken from PubChem BioAssay AID296 (DTP/NCI, 2004).
Several values for one entry are separate records, joined by “and”; a condition that tells them apart may be missing. Equal entries are not always repeated. Results filed as inconclusive are left out.

Test system: MX-1 breast xenograft, nude mice, tumor weight T/C
Assay: NCI In Vivo Anticancer Drug Screen. Data for tumor model Human Mammary Carcinoma MX-1 Xenograft (intrarenal inoculation) in NU/NU Swiss (nude) mice
Details: endpoint: mean tumor weight change, higher = larger tumour
Outline: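 Antitumour effect measured in vivo against vehicle controls, expressed as T/C.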

[1] = dose: 50.0 mg/kg/injection, schedule: Q01DX010 (sc), vehicle: water
[2] = dose: 75.0 mg/kg/injection, schedule: Q04DX003 (sc), vehicle: water
[3] = dose: 150.0 mg/kg/injection, schedule: Q04DX003 (sc), vehicle: water
[4] = dose: 400.0 mg/kg/injection, schedule: Q01DX010 (sc), vehicle: saline with Tween-80
[5] = dose: 100.0 mg/kg/injection, schedule: Q04DX003 (sc), vehicle: saline
[6] = dose: 200.0 mg/kg/injection, schedule: Q04DX003 (sc), vehicle: saline
[7] = dose: 400.0 mg/kg/injection, schedule: Q04DX003 (sc), vehicle: saline

SMILES: COC12[C@@H]3N[C@@H]3CN1C1=C(C(=O)C(NCCSSCCNC3=C(C)C(=O)C4=C(C3=O)C(COC(N)=O)[C@]3(OC)C5N[C@@H]5CN43)=C(C)C1=O)[C@@H]2COC(N)=O (stereo not given in full)
- T/C (dose: 3.12 mg/kg/injection, schedule: Q04DX003 (ip), vehicle: DMSO): 17 % of control
- T/C (dose: 12.5 mg/kg/injection, schedule: Q04DX003 (ip), vehicle: DMSO): 14 % of control
- T/C (dose: 25.0 mg/kg/injection, schedule: Q04DX003 (ip), vehicle: DMSO): -1 % of control

SMILES: O=C1c2ccccc2C(=O)c2c(NCCNCCO)ccc(NCCNCCO)c21
- T/C (dose: 4.0 mg/kg/injection, schedule: Q01DX010 (ip), vehicle: water): 59 % of control
- T/C (dose: 8.0 mg/kg/injection, schedule: Q01DX010 (ip), vehicle: water): 80 % of control
- T/C (dose: 13.33 mg/kg/injection, schedule: Q04DX003 (ip), vehicle: water): 45 % of control
- T/C (dose: 13.33 mg/kg/injection, schedule: Q04DX003 (sc), vehicle: water): 65 % of control
- T/C (dose: 16.0 mg/kg/injection, schedule: Q01DX010 (ip), vehicle: water): 61 % of control
- T/C (dose: 16.0 mg/kg/injection, schedule: Q01DX010 (sc), vehicle: water): 13 % of control and 25 % of control
- T/C (dose: 26.65 mg/kg/injection, schedule: Q04DX003 (sc), vehicle: water): 32 % of control
- T/C (dose: 32.0 mg/kg/injection, schedule: Q01DX010 (ip), vehicle: water): 20 % of control
- T/C (dose: 53.3 mg/kg/injection, schedule: Q04DX003 (ip), vehicle: water): 31 % of control
- T/C (dose: 53.3 mg/kg/injection, schedule: Q04DX003 (sc), vehicle: water): 31 % of control

SMILES: C/C=C/c1cc2n(c1)C(=O)c1cc(OC3OC(C)C(NC)C(C)(O)C3O)c(C)c(O)c1NC2O (stereo not given)
- T/C (dose: 100.0 micrograms/kg/injection, schedule: Q04DX003 (sc), vehicle: saline): 182 % of control
- T/C (dose: 200.0 micrograms/kg/injection, schedule: Q04DX003 (sc), vehicle: saline): 22 % of control
- T/C (dose: 400.0 micrograms/kg/injection, schedule: Q04DX003 (sc), vehicle: saline): 91 % of control

SMILES: CC(C)CC(NC(=O)CF)C(=O)O (stereo not given)
- T/C (dose: 10.0 mg/kg/injection, schedule: Q04DX003 (sc), vehicle: saline): 92 % of control
- T/C (dose: 20.0 mg/kg/injection, schedule: Q04DX003 (sc), vehicle: saline): 89 % of control

SMILES: ClCC[N+]12CC[N+](CCCl)(CC1)C2
- T/C (dose: 3.12 mg/kg/injection, schedule: Q01DX010 (sc), vehicle: saline with Tween-80): 106 % of control
- T/C (dose: 6.25 mg/kg/injection, schedule: Q01DX010 (sc), vehicle: saline with Tween-80): 69 % of control
- T/C (dose: 12.5 mg/kg/injection, schedule: Q01DX010 (sc), vehicle: saline with Tween-80): 108 % of control
- T/C (dose: 25.0 mg/kg/injection, schedule: Q01DX010 (sc), vehicle: saline with Tween-80): 96 % of control
- T/C [1]: 39 % of control and 57 % of control
- T/C [2]: 51 % of control
- T/C (dose: 100.0 mg/kg/injection, schedule: Q01DX010 (sc), vehicle: water): 7 % of control and 13 % of control
- T/C (dose: 135.0 mg/kg/injection, schedule: Q04DX003 (sc), vehicle: water): 45 % of control and 63 % of control
- T/C (dose: 150.0 mg/kg/injection, schedule: Q01DX010 (sc), vehicle: water): 15 % of control
- T/C [3]: 32 % of control
- T/C (dose: 200.0 mg/kg/injection, schedule: Q01DX010 (sc), vehicle: water): -36 % of control and -32 % of control
- T/C [4]: 5 % of control
- T/C (dose: 450.0 mg/kg/injection, schedule: Q04DX003 (sc), vehicle: water): 12 % of control and 27 % of control

SMILES: O=C1c2ccccc2C(=O)c2c(NCCNCCO)ccc(O)c21
- T/C (dose: 25.0 mg/kg/injection, schedule: Q04DX003 (sc), vehicle: suspension in saline): 95 % of control
- T/C (dose: 50.0 mg/kg/injection, schedule: Q04DX003 (sc), vehicle: saline): 92 % of control
- T/C [5]: 69 % of control
- T/C (dose: 100.0 mg/kg/injection, schedule: Q04DX003 (sc), vehicle: suspension in saline): 69 % of control and 78 % of control
- T/C [6]: 63 % of control
- T/C (dose: 200.0 mg/kg/injection, schedule: Q04DX003 (sc), vehicle: suspension in saline): 78 % of control
- T/C [7]: 37 % of control
- T/C (dose: 400.0 mg/kg/injection, schedule: Q04DX003 (sc), vehicle: suspension in saline): 98 % of control

SMILES: CNNCc1ccc(C(=O)NC(C)C)cc1
- T/C (dose: 100.0 mg/kg/injection, schedule: Q01DX010 (sc), vehicle: saline): 57 % of control and 69 % of control
- T/C (dose: 400.0 mg/kg/injection, schedule: Q01DX010 (sc), vehicle: saline): 7 % of control

SMILES: NCCc1cc(O)c(O)c(O)c1
- T/C [5]: 59 % of control
- T/C [6]: 150 % of control
- T/C [7]: 154 % of control
- T/C (dose: 800.0 mg/kg/injection, schedule: Q04DX003 (sc), vehicle: saline): 72 % of control

SMILES: N=C(N)c1ccc(/C=C/c2ccc(C(=N)N)cc2O)cc1
- T/C (dose: 37.5 mg/kg/injection, schedule: Q04DX003 (sc), vehicle: water): 87 % of control
- T/C [2]: 83 % of control
- T/C [3]: 89 % of control
- T/C (dose: 300.0 mg/kg/injection, schedule: Q04DX003 (sc), vehicle: water): 77 % of control

SMILES: CN(C)c1ccc(C(=C2C=CC(=[N+](C)C)C=C2)c2ccc(N(C)C)cc2)cc1 (tested in a mixture with another compound)
- T/C (dose: 15.0 mg/kg/injection, schedule: Q04DX003 (sc), vehicle: saline with Tween-80): 70 % of control
- T/C (dose: 30.0 mg/kg/injection, schedule: Q04DX003 (sc), vehicle: saline with Tween-80): 104 % of control
- T/C (dose: 60.0 mg/kg/injection, schedule: Q04DX003 (sc), vehicle: saline with Tween-80): 97 % of control
- T/C (dose: 120.0 mg/kg/injection, schedule: Q04DX003 (sc), vehicle: saline with Tween-80): 82 % of control

SMILES: C[Si](C)(C)O/C=C1/CCOC1=O
- T/C (dose: 1200.0 mg/kg/injection, schedule: Q04DX003 (sc), vehicle: suspension in saline): 105 % of control
- T/C (dose: 2400.0 mg/kg/injection, schedule: Q04DX003 (sc), vehicle: suspension in saline): 157 % of control

SMILES: COc1nc(C(Cl)(Cl)Cl)c(Cl)c(OC)c1Cl
- T/C (dose: 75.0 mg/kg/injection, schedule: Q04DX003 (ip), vehicle: Klucel (hydroxypropylcellulose) (HPC)): 33 % of control
- T/C (dose: 150.0 mg/kg/injection, schedule: Q04DX003 (ip), vehicle: Klucel (hydroxypropylcellulose) (HPC)): -28 % of control
- T/C (dose: 150.0 mg/kg/injection, schedule: Q04DX003 (oral), vehicle: Klucel (hydroxypropylcellulose) (HPC)): -33 % of control
- T/C (dose: 300.0 mg/kg/injection, schedule: Q04DX003 (ip), vehicle: Klucel (hydroxypropylcellulose) (HPC)): 10 % of control
- T/C (dose: 300.0 mg/kg/injection, schedule: Q04DX003 (oral), vehicle: Klucel (hydroxypropylcellulose) (HPC)): -15 % of control

SMILES: Cn1cnc([N+](=O)[O-])c1[Se]c1nc(N)nc2nc[nH]c12
- T/C [1]: 71 % of control

SMILES: CCC[P+](c1ccccc1)(c1ccccc1)c1ccccc1
- T/C (dose: 18.75 mg/kg/injection, schedule: Q04DX003 (sc), vehicle: saline with Tween-80): 100 % of control
- T/C (dose: 37.5 mg/kg/injection, schedule: Q04DX003 (sc), vehicle: saline with Tween-80): 73 % of control
- T/C (dose: 75.0 mg/kg/injection, schedule: Q04DX003 (sc), vehicle: saline with Tween-80): 62 % of control
- T/C (dose: 150.0 mg/kg/injection, schedule: Q04DX003 (sc), vehicle: saline with Tween-80): 54 % of control

SMILES: CC1=CC2C(O)(CC(CO)=CC3C4C(C)(C)C4(OC(=O)c4ccccc4)C(OC(=O)c4ccccc4)C(C)C32O)C1=O (stereo not given)
- T/C (dose: 2.5 mg/kg/injection, schedule: Q04DX003 (sc), vehicle: saline with Tween-80): 83 % of control
- T/C (dose: 5.0 mg/kg/injection, schedule: Q04DX003 (sc), vehicle: saline with Tween-80): 70 % of control
- T/C (dose: 10.0 mg/kg/injection, schedule: Q04DX003 (sc), vehicle: saline with Tween-80): 90 % of control

SMILES: CCC(=O)N(C)[C@@H](C)C(=O)O[C@H]1CC(=O)N(C)c2cc(cc(OC)c2Cl)C/C(C)=C/C=C[C@@H](OC)[C@@]2(O)C[C@H](OC(=O)N2)[C@@H](C)[C@@H]2O[C@@]12C
- T/C (dose: 0.07 mg/kg/injection, schedule: Q04DX003 (sc), vehicle: saline + alcohol): 117 % of control
- T/C (dose: 0.13 mg/kg/injection, schedule: Q04DX003 (sc), vehicle: saline + alcohol): 98 % of control
- T/C (dose: 0.25 mg/kg/injection, schedule: Q04DX003 (sc), vehicle: saline + alcohol): 88 % of control
- T/C (dose: 0.5 mg/kg/injection, schedule: Q04DX003 (sc), vehicle: saline + alcohol): 7 % of control

SMILES: CCCCc1ccc2nc(NC(=O)OC)[nH]c2c1
- T/C (dose: 200.0 mg/kg/injection, schedule: Q01DX010 (sc), vehicle: saline with Tween-80): 109 % of control
- T/C [4]: 69 % of control
- T/C (dose: 800.0 mg/kg/injection, schedule: Q01DX010 (sc), vehicle: saline with Tween-80): 48 % of control
